The source of these data is paper PMC10117049, “RND Pump-Mediated Efflux of Amotosalen, a Compound Used in Pathogen Inactivation Technology to Enhance Safety of Blood Transfusion Products, May Compromise Its Gram-Negative Anti-Bacterial Activity” (mSphere, 2023).

One assay has as its system E. coli. Nature of the assay: microbe, parasite or virus in culture. Details: Broth microdilution MIC in 384-well plates after UVA exposure (2 J/cm2), A600 growth read-out. Conditions: Escherichia coli, 20 h, UVA 365 nm, 2 J/cm2, modal MIC of three or more replicates. Here is the method: (§1) For MIC determination, bacterial stocks frozen at −80°C were streaked onto tryptic soy agar plates containing 5% sheep blood (Remel), and grown overnight at 35°C in ambient air. Colonies were then suspended in 0.9% saline to 0.5 McFarland, measured using a Densicheck (bioMérieux); diluted 1:300 in cation-adjusted Mueller-Hinton broth (BD); and dispensed into 384-well polystyrene plates (Greiner Bio-One) at 50 μL per well with the following exceptions: For MIC determinations with AG100AX strains containing pAdeC and pAdeAB plasmids, −80°C frozen stocks were inoculated directly into non-cation-adjusted Mueller-Hinton broth containing 100 μg/mL ampicillin, 50 μg/mL nourseothricin, 5 mM calcium chloride, and 5 mM magnesium chloride, with or without adeABC induction using 1% L-arabinose and 1.0 mM Isopropyl β-D-1-thiogalactopyranoside (IPTG), and grown overnight at 37°C in 15 mL conical tubes with continual rotation. Bacterial cultures were then adjusted to 0.5 McFarland and diluted 1:300 in the same medium, and dispensed as above. Induction of other cloned efflux pumps was with 1% L-arabinose (or 0.5% L-arabinose for cloned P. aeruginosa pumps) in the absence of supplemental divalent cations. Lastly, P. aeruginosa PAO1 strains were dispensed into 96-well plates to avoid skipped-well effects observed in 384-well plate format. Filled microplates were centrifuged at 1250 rcf for 4 min to ensure the entire inoculum was in continuity with the bottom of the well. Then, 2-fold doubling dilutions of stock solutions of amotosalen, AMT, or 8-MOP supplemented with 0.3% Tween 20 (Sigma-Aldrich) were dispensed into microwells using the HP D300 digital dispensing system (HP, Inc.), as previously described ([87][–][90]), and the microplates were mixed for 5 min on a microplate shaker to ensure complete mixing of psoralens with the inoculum. Microplates were then exposed to UV light in a UV Stratalinker 1800 (Stratagene), retrofitted with UV BL F8T5 CFL 12-inch UVA 365 nm Blacklight Bulbs (Coolspider), and calibrated according to manufacturer’s instructions with an UVA365 UV Light Meter (Amtast) for a total exposure of 2 Joules/cm^2 of UVA, to approximate exposure during platelet pathogen inactivation ([10]). Testing of control antibiotics was performed in an identical fashion, however, without UVA exposure. After incubation at 35°C for 20 h, the A600 was measured using a TECAN M1000 microplate reader. MICs were determined based on a growth inhibition A600 cutoff of 0.06, which is consistent with our prior determinations of Clinical and Laboratory Standards Institute reference standard equivalent, MIC determinations in 384-well plate format ([88], [90], [91]). […] The concentrations of MgCl2 and CaCl2 used were empirically determined previously to be optimal for efflux of minocycline and ethidium bromide (data not shown).

The subject of assay [1] is Stenotrophomonas maltophilia. Put plainly: microbe, parasite or virus in culture. Conditions: Stenotrophomonas maltophilia, 20 h, UVA 365 nm, 2 J/cm2, modal MIC of three or more replicates. Details: Broth microdilution MIC in 384-well plates after UVA exposure (2 J/cm2), A600 growth read-out. The protocol: as §1
The test system of another assay is P. aeruginosa. Put plainly: microbe, parasite or virus in culture. Particulars: Pseudomonas aeruginosa, 20 h, UVA 365 nm, 2 J/cm2, modal MIC of three or more replicates. Details: Broth microdilution MIC in 384-well plates after UVA exposure (2 J/cm2), A600 growth read-out. Here is the method:
as §1

Another assay deals with Burkholderia multivorans. Nature of the assay: microbe, parasite or virus in culture. Details: Broth microdilution MIC in 384-well plates after UVA exposure (2 J/cm2), A600 growth read-out. Conditions: Burkholderia multivorans, 20 h, read-out: Amotosalen Modal MIC (mM)a, Strain #=BEI NR-20533; MDRb=Unknown; UVA 365 nm, 2 J/cm2; modal MIC of three or more replicates. Here is the method: as §1

The next assay relates to Burkholderia cepacia. Put plainly: microbe, parasite or virus in culture. Details: Broth microdilution MIC in 384-well plates after UVA exposure (2 J/cm2), A600 growth read-out. Particulars: Burkholderia cepacia, 20 h, read-out: Amotosalen Modal MIC (mM)a, Strain #=BEI NR-702; MDRb=Unknown; UVA 365 nm, 2 J/cm2; modal MIC of three or more replicates. The protocol:
as §1

A further assay deals with A. baumannii. Nature of the assay: microbe, parasite or virus in culture. Details: Broth microdilution MIC in 384-well plates after UVA exposure (2 J/cm2), A600 growth read-out. Conditions: Acinetobacter baumannii, 20 h, MDRb=Yes, UVA 365 nm, 2 J/cm2, modal MIC of three or more replicates. The protocol:
as §1

For another assay, the system named is K. pneumoniae. Nature of the assay: microbe, parasite or virus in culture. More on the design: Broth microdilution MIC in 384-well plates after UVA exposure (2 J/cm2), A600 growth read-out. Particulars: Klebsiella pneumoniae, 20 h, MDRb=Yes, UVA 365 nm, 2 J/cm2, modal MIC of three or more replicates. The protocol:
as §1

The test system of another assay is Burkholderia cenocepacia. Nature of the assay: microbe, parasite or virus in culture. Details: Broth microdilution MIC in 384-well plates after UVA exposure (2 J/cm2), A600 growth read-out. Conditions: Burkholderia cenocepacia, 20 h, MDRb=Unknown, UVA 365 nm, 2 J/cm2, modal MIC of three or more replicates. The protocol:
as §1

A further assay concerns the target AdeB (Acinetobacter baumannii, UniProt Q2FD70). Nature of the assay: fluorescence polarization titration using the inherent fluorescence of amotosalen ([…]). Type of assay: binding.

Like-named read-outs stand apart in the source and are kept apart here.

Sequence of AdeB (Q2FD70 entry or part of it): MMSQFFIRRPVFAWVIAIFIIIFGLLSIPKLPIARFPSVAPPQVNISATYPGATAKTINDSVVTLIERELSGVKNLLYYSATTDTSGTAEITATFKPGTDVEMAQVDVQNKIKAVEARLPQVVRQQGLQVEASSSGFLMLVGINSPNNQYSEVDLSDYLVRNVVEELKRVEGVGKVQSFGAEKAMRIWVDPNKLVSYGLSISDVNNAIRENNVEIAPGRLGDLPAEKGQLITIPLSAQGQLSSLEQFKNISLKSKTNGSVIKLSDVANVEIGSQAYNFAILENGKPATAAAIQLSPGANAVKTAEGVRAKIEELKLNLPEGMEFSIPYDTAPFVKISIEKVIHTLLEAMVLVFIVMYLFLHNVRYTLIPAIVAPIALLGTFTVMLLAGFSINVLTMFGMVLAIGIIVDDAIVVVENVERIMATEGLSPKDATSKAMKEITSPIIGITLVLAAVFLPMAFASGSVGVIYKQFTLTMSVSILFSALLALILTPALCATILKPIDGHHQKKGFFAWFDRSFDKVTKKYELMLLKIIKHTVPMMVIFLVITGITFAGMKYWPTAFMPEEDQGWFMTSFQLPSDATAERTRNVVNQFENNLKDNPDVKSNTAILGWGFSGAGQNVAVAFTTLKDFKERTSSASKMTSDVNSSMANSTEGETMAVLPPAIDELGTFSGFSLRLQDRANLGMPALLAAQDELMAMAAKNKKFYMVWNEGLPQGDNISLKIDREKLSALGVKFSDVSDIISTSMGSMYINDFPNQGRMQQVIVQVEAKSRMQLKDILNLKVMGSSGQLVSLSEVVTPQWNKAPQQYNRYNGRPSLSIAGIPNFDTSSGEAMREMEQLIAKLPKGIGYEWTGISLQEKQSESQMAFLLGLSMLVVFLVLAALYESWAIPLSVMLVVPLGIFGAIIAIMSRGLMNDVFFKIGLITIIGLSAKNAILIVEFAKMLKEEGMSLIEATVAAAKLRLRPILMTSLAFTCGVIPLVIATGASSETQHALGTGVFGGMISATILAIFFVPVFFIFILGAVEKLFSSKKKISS

In the case of `Cc1oc2c(C)c3oc(=O)cc(C)c3cc2c1COCCN` [amotosalen, 4′-(4-amino-2-oxa)butyl-4,5′,8-trimethylpsoralen], the MIC with E. coli (read-out: Amotosalen Modal MIC (mM)a, Strain #=ATCC 25922e, MDRb=No) was 0.008 mM; with E. coli (read-out: Amotosalen Modal MIC (mM)a, Strain #=FDA-CDC 0114, MDRb=Yes) it was 0.128 mM; in the assay on E. coli (read-out: Amotosalen Modal MIC (mM)a, Strain #=FDA-CDC 0118, MDRb=Yes), 0.064 mM; in assay [1] (read-out: Amotosalen Modal MIC (mM)a, Strain #=JEK154) it was 0.256 mM; in assay [1] (read-out: Amotosalen Modal MIC (mM)a, Strain #=JEK155), 0.064 mM; in the assay on P. aeruginosa (read-out: Amotosalen Modal MIC (mM)a, Strain #=ATCC 27583e, MDRb=No) it was less than 0.004 mM. The MIC in the assay with P. aeruginosa (read-out: Amotosalen Modal MIC (mM)a, Strain #=FDA-CDC 229, MDRb=Yes) was more than 0.256 mM; with P. aeruginosa (read-out: Amotosalen Modal MIC (mM)a, Strain #=FDA-CDC 230, MDRb=Yes), 0.128 mM; in the assay on P. aeruginosa (read-out: Amotosalen Modal MIC (mM)a, Strain #=FDA-CDC 232, MDRb=Yes) it was 0.256 mM; in the assay on Burkholderia multivorans, more than 0.256 mM; with Burkholderia cepacia it was more than 0.256 mM; in the assay with A. baumannii (read-out: Amotosalen Modal MIC (mM)a, Strain #=FDA-CDC 0292) it was 0.064 mM. The MIC in the assay on A. baumannii (read-out: Amotosalen Modal MIC (mM)a, Strain #=WRAIR 15067) was found to be 0.128 mM; with K. pneumoniae (read-out: Amotosalen Modal MIC (mM)a, Strain #=FDA-CDC 0113) it was 0.128 mM; in the assay with K. pneumoniae (read-out: Amotosalen Modal MIC (mM)a, Strain #=FDA-CDC 0146), 0.256 mM; with Burkholderia cenocepacia (read-out: Amotosalen Modal MIC (mM)a, Strain #=BEI NR-701), 0.128 mM; with Burkholderia cenocepacia (read-out: Amotosalen Modal MIC (mM)a, Strain #=BEI NR-20535) it was 0.256 mM. The same compound registered a Kd at AdeB of 27.9 ± 1.8 µM.
